Read-outs that look alike come from different tables or passages of the source.
Experiments:
Gefäßmuskulatur = conditions: described in DE 32 32 462; cited from earlier work
ATP-abhängige K-Kanäle = assay: Glyburide sensitivity of the hyperpolarising effect; type: cell-based; conditions: with glyburide
Neuronen = assay: Effect (hyperpolarising activity) on neurons; type: cell-based, Ratten
A10-Zellen = assay: Activity on vascular tissue (A10 cells); type: cell-based; conditions: read-out: IC₅₀
[1] = tested on: MIPP-N1E-115-Neuroblastomlinie; assay: Hyperpolarising activity in neuroblastoma cell line; type: cell-based; conditions: for hyperpolarisierende Wirkung: MIPP-N1E-115 neuroblastoma line
[2] = tested on: Zellinie des glatten Muskels; assay: Activity in a smooth muscle cell line; type: cell-based
[3] = tested on: Neuronen vom Typ der Pyramidenzellen aus dem Hippocampus; assay: Neuroprotection on single neurons of the central nervous system; type: cell-based, Ratten; conditions: single neurons from rat CNS; inhibition of raised calcium during long-term depolarisation

In the case of `CCOc1ccccc1NC(=C[N+](=O)[O-])NC(C)C(C)(C)C` (racemic) [racemische Gemisch, N-(2-Ethoxyphenyl)-N'-(1,2,2-trimethylpropyl)-2-nitroethen-1,1-diamin], the “Wirkung auf die Gefäßmuskulatur” value (Gefäßmuskulatur) is listed as “eine Wirkung auf die Gefäßmuskulatur ausübt”.

For `CCOc1ccccc1NC(=C[N+](=O)[O-])NC(C)C(C)(C)C` (single isomer, unassigned; (+)) [Beispiel 2, (+)-N-(2-Ethoxyphenyl)-N'-(1,2,2-trimethylpropyl)-2-nitroethen-1,1-diamin], the “hyperpolarisierende Wirkung, Blockierbarkeit durch Glyburide” value (ATP-abhängige K-Kanäle; listed as (+)-Enantiomer) was “durch Glyburide inhibierbares Hyperpolarisierungsmittel”, the “Blockierung der Wirkung des (-)-Enantiomers auf Neuronen” value (Neuronen; (+)-enantiomer 1 µM against effect of 5 pM (-)-enantiomer) was “blockiert” and the EC50 (Neuronen; Neuron, in neurons, read-out: EC₅₀-Wert) was 500 nM. The “Konzentration, bei der wirksam, als Vielfaches der Konzentration des (-)-Enantiomers” value (Neuronen; multiple of the 5 pM concentration of the (-)-enantiomer in neurons) was > 10 000 -fach, the IC50 (A10-Zellen; listed as (+)-Enantiomer) was 15 nM and the “hyperpolarisierende Wirkung” value ([1]; listed as (+)-Enantiomer) was “nicht auf das (+)-Enantiomer anspricht”.

With `CCOc1ccccc1NC(=C[N+](=O)[O-])NC(C)C(C)(C)C` (single isomer, unassigned; (-)) [Beispiel 1, (-)-N-(2-Ethoxyphenyl)-N'-(1,2,2-trimethylpropyl)-2-nitroethen-1,1-diamin] the Wirksamkeit [2] was “unwirksam”, the “hyperpolarisierende Wirkung, Blockierbarkeit durch Glyburide” value (ATP-abhängige K-Kanäle; listed as (-)-Enantiomer) was “durch Glyburide nicht blockiert” and the IC50 (Neuronen; Neuron, in neurons, read-out: IC₅₀-Wert) was 0.005 nM. The IC50 (A10-Zellen; listed as (-)-Enantiomer) was 250 nM, the Neuroprotektion [3] was “bemerkenswerte Neuroprotektion” and the “hyperpolarisierende Wirkung” value ([1]; listed as (-)-Enantiomer) was “wirksam”. It also gave an EC50 ([1]; Neuroblastoma cell, newly found hyperpolarising activity not blocked by glyburide, read-out: EC₅₀) of less than 0.01 nM.

From EP0561237A2, “Enantiomer, (-)-N-(2-ethoxyphenyl)-N'-(1,2,2-trimethylpropyl)-2-nitromethene-1,1-diamine, process for its preparation and its use” (BAYER AG, priority 1992, dated 1993)
